This assay concerns the target T1, GABAB receptor (GABABR1a/GABABR2) (Homo sapiens, UniProt O75899+Q9UBS5).
T1 construct: expressed in transfected cells; membranes prepared from the cells
Description: [35S]-GTPγS binding assay, potency of positive allosteric modulator on GABA EC50. Conditions: potency of the positive allosteric modulator (log EC50 for GABA plotted against log modulator concentration). It is filed as biochemical. The source says:
GABABR1a and GABABR2 were cloned from human brain cDNA and subcloned into pCI-Neo (Promega) and pALTER-1 (Promega), respectively. A GABABR1a-Gαqi5 fusion protein expression vector was constructed using the pCI-Neo-GABABR1a cDNA plasmid and pLEC1-Gαqi5 (Molecular Devices, Calif.). In order to make the Gαqi5 pertussis toxin insensitive, Cys356 was mutated to Gly using standard PCR methodology with the primers 5′-[…]-3′ (forward) and 5′-GCGGCCG […]-3′ (reverse). The Gαqi5mut cDNA was ligated into the BamHI and NotI sites of pcDNA3.0 (Invitrogen). The GABABR1a coding sequence was amplified by PCR from pCI-Neo-GABABR1a using the primers, 5′-[…]-3′ (forward) and 5′-[…]-3′ (reverse) and subcloned into the BamHI site of pcDNA3.0-Gαqi5mut.
For generation of stable cell lines, CHO-K1 cells were grown in Nut mix F-12 (Ham) media supplemented with 10% FBS, 100 U/ml Penicillin and 100 μg/ml Streptomycin at 37° C. in a humidified CO2-incubator. […]
[^35S]-GTPγS binding assays were performed at 30° C. for 45 min in membrane buffer (100 mM NaCl, […], 1 mM EDTA, 50 mM HEPES, pH 7.4) containing 0.025 μg/μl of membrane protein (prepared from the cell lines described above) with 0.01% bovine serum albumin (fatty acid free), 10 μM GDP, 100 μM DTT and 0.53 nM [^35S]-GTPγS (Amersham-Pharmacia Biotech) in a final volume of 200 μl. Non-specific binding was determined in the presence of 20 μM GTPγS. […]

T1 sequence (Q9UBS5 15-961 limits assumed): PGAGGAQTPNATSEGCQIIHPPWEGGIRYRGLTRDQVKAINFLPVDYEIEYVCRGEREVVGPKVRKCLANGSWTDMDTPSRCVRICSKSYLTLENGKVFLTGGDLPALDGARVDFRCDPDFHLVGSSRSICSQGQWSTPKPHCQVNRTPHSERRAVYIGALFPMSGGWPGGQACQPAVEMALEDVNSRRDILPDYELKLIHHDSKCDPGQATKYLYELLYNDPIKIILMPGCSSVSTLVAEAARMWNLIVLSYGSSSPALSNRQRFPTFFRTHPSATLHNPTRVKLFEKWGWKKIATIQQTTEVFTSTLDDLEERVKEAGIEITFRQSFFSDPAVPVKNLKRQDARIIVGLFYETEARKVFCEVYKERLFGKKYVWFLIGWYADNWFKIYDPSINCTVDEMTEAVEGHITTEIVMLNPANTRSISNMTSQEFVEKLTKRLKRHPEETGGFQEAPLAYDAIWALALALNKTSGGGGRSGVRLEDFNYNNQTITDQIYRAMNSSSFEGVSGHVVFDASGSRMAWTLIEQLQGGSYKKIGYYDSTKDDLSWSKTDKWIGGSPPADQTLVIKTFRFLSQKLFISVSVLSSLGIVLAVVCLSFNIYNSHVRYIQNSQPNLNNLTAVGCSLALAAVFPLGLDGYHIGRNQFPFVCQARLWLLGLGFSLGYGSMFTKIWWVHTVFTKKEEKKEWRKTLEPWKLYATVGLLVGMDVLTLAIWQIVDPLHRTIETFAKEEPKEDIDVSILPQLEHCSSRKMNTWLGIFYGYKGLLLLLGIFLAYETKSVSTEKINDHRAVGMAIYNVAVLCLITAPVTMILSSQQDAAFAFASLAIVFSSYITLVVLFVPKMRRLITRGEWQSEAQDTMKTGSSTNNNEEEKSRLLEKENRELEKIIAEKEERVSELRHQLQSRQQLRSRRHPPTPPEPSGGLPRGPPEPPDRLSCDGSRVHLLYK
T1 sequence (O75899 42-941): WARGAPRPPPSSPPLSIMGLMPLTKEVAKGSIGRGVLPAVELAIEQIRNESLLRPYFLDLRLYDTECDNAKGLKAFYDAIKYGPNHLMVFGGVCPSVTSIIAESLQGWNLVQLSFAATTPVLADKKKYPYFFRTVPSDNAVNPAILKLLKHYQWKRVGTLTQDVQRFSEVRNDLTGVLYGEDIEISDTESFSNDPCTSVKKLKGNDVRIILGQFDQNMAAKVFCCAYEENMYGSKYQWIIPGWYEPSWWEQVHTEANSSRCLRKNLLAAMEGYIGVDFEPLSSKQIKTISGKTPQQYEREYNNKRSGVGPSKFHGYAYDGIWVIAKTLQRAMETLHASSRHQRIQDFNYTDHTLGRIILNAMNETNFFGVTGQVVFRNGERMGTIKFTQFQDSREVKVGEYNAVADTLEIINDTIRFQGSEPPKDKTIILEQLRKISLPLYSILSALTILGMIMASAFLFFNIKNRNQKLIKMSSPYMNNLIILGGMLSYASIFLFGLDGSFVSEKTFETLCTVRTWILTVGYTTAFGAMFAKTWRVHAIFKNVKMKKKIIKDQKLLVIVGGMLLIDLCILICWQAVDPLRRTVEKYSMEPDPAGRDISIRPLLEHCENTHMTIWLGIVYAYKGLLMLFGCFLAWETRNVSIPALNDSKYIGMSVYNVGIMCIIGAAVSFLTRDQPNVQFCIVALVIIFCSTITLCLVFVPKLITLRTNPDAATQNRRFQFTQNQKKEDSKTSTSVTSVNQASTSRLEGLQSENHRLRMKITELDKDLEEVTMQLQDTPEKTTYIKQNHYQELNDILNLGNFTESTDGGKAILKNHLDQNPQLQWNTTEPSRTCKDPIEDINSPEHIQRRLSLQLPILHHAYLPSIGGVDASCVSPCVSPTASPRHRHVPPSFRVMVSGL

The compound `CCCc1nc(NC(=O)C2COc3ccccc3O2)c(C(=O)OC(C)(C)C)n1CC(C)C` (centres unmarked) [Example 21, Tert-butyl 4-[(2,3-dihydro-1,4-benzodioxin-2-ylcarbonyl)amino]-1-isobutyl-2-propyl-1H-imidazole-5-carboxylate] returned an EC50 of 3.68 µM. As for `CCCc1nc(NC(=O)C2COc3ccccc3O2)c(C(=O)OCC)n1CC(C)C` (centres unmarked) [Example 25, Ethyl 4-[(2,3-dihydro-1,4-benzodioxin-2-ylcarbonyl)amino]-1-isobutyl-2-propyl-1H-imidazole-5-carboxylate], the EC50 is 5.54 µM.

The values above are taken from patent US20080312305A1, “Imidazoles as Gaba- B Receptor Modulators” (priority 2005, published 2008).
